Columns and labels:
[1] = target: T1, Recombinant ROCK1 (amino acids 1-477) (Homo sapiens, UniProt Q13464); test: ROCK inhibition assay, LANCE Ultra TR-FRET kinase assay (ROCK1); type: biochemical; conditions: 1 μM ATP, 50 nM ULight-CREBtide substrate
T1 construct: Recombinant ROCK1 (amino acids 1-477); by word order, ROCK1 from Carna Biosciences
Procedure: (§1) Kinase IC50 was determined through an in vitro assay based on LANCE Ultra TR-FRET (Time-Resolved Fluorescence Resonance Energy Transfer) homogeneous technologies method (Perkin Elmer). Recombinant ROCK1 (amino acids 1-477) and ROCK2 (amino acids 5-554) proteins were purchased from Carna Biosciences and SignalChem. Compound activities were measured by Envision and IC50s were calculated. The assays were performed in white LUMITRAC™ 200 96 well half-area microplates from Greiner Bio-One. The kinase reaction buffer consisted of 50 mM HEPES pH 7.5, 1 mM EGTA, 10 mM MgCl2, 2 mM DTT and 0.01% Tween-20. Kinases were incubated with 50 nM (ULight-CREBtide) substrate in the presence of 1 (ROCK1) or 4 (ROCK2) μM ATP. The kinase reaction was carried out for 1 hour before addition of a stopping buffer to a final of 10 mM EDTA and 0.6 nM of LANCE Ultra Europium anti-phospho-CREB (Ser133) antibody (PerkinElmer TRF0200) in LANCE detection buffer. All assay incubations were performed at room temperature, and the microplates were sealed with polyester film during that time. The reaction was incubated for 1 hour, and the signal was read in Envision in TR-FRET mode (excitation at 320 nm and emission at 615/665 nm).
(§2) As used herein, a way to describe potency of inhibitory activity (nM) is a value of inhibitory activity at 50% (IC50).

[2] = target: T2, Recombinant ROCK2 (amino acids 5-554) (Homo sapiens, UniProt O75116); test: ROCK inhibition assay, LANCE Ultra TR-FRET kinase assay (ROCK2); type: biochemical; conditions: 4 μM ATP, 50 nM ULight-CREBtide substrate
T2 construct: ROCK2 (amino acids 5-554); by word order, ROCK2 from SignalChem
Procedure: as §1, §2

T1 sequence (Q13464 1-477): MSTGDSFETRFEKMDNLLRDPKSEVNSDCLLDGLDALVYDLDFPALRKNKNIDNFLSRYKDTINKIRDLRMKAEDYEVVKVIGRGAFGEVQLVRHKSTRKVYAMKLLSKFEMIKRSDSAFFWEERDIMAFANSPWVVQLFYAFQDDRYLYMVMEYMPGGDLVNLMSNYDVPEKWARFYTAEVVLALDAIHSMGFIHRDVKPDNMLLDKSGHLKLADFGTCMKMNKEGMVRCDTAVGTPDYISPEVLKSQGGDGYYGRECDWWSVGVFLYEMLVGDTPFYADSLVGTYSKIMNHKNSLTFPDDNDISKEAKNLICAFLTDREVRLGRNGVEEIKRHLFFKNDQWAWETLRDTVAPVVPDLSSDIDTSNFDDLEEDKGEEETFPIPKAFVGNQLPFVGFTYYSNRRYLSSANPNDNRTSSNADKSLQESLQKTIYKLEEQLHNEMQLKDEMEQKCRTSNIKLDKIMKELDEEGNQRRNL
T2 sequence (O75116 5-554): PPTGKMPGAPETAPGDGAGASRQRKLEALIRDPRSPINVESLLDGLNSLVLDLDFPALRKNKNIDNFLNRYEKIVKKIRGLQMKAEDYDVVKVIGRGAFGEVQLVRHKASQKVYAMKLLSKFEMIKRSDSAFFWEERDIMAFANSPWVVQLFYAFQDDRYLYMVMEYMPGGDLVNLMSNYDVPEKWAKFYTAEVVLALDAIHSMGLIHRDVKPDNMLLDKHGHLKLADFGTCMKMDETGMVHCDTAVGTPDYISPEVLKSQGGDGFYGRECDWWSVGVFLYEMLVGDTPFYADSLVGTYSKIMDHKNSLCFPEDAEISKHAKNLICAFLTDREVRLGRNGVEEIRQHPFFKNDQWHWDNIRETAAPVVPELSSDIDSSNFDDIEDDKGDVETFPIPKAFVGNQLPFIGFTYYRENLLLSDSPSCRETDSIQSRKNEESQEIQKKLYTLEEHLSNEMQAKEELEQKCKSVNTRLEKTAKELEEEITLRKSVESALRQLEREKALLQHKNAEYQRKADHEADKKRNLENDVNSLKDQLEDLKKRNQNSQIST

Structure (SMILES)	IC50 [1] [nM]	IC50 [2] [nM]
Cc1n[nH]cc1-c1ccc2c(=O)n(Cc3cccc(C(=O)NCc4cccc(NS(C)(=O)=O)c4)c3)ccc2c1 [Compound 33]	> 501	100 to 500
Cc1n[nH]cc1-c1ccc2c(=O)n(Cc3cccc(C(=O)Nc4cccc(S(N)(=O)=O)c4)c3)ccc2c1 [Compound 34]	> 501	100 to 500
Cc1n[nH]cc1-c1ccc2c(=O)n(Cc3cccc(C(=O)Nc4cccc(OC(F)(F)F)c4)c3)ccc2c1 [Compound 35]	> 501	100 to 500
Cc1n[nH]cc1-c1ccc2c(=O)n(Cc3cccc(C(=O)Nc4ccc(S(N)(=O)=O)cc4)c3)ccc2c1 [Compound 36]	> 501	100 to 500
Cc1n[nH]cc1-c1ccc2c(=O)n(Cc3cccc(C(=O)Nc4ccc(NS(C)(=O)=O)cc4)c3)ccc2c1 [Compound 37]	> 501	100 to 500
Cc1n[nH]cc1-c1ccc2c(=O)n(Cc3cccc(C(=O)Nc4ccccc4OC(F)(F)F)c3)ccc2c1 [Compound 38]	> 501	100 to 500
Cc1n[nH]cc1-c1ccc2c(=O)n(Cc3cccc(C(=O)Nc4ccc(F)nc4)c3)ccc2c1 [Compound 39]	101 to 500	10 to 100
Cc1n[nH]cc1-c1ccc2c(=O)n(Cc3cccc(C(=O)NCC(F)(F)F)c3)ccc2c1 [Compound 41]	101 to 500	10 to 100
NS(=O)(=O)c1ccc(NC(=O)c2cccc(Cn3ccc4cc(-c5c[nH]nc5C(F)(F)F)ccc4c3=O)c2)cc1 [Compound 42]	101 to 500	10 to 100
O=C(NC1CCOCC1)c1cccc(Cn2ccc3cc(-c4c[nH]nc4C(F)(F)F)ccc3c2=O)c1 [Compound 45]	101 to 500	10 to 100
O=C(NC1CCN(C2COC2)CC1)c1cccc(Cn2ccc3cc(-c4c[nH]nc4C(F)(F)F)ccc3c2=O)c1 [Compound 48]	101 to 500	< 10
O=C(NC1CCN(CC(F)F)CC1)c1cccc(Cn2ccc3cc(-c4c[nH]nc4C(F)(F)F)ccc3c2=O)c1 [Compound 49]	101 to 500	< 10
O=C(NC1CC1)c1cccc(Cn2ccc3cc(-c4c[nH]nc4C(F)(F)F)ccc3c2=O)c1 [Compound 50]	101 to 500	10 to 100
O=C(NCCO)c1cc(F)cc(Cn2ccc3cc(-c4c[nH]nc4Cl)ccc3c2=O)c1 [Compound 65]	101 to 500	10 to 100
Cc1nocc1-c1ccc2c(=O)n(Cc3cccc(C(=O)NCCN4CCOCC4)c3)ccc2c1 [Compound 69]	101 to 500	10 to 100
Cc1nocc1-c1ccc2c(=O)n(Cc3cccc(C(=O)N[C@H]4C[C@@H](O)C4)c3)ccc2c1 [Compound 72]	101 to 500	10 to 100
Cc1nocc1-c1ccc2c(=O)n(Cc3cccc(C(=O)N[C@H]4C[C@H](O)C4)c3)ccc2c1 [Compound 73]	101 to 500	10 to 100
Cc1nocc1-c1ccc2c(=O)n(Cc3cccc(C(=O)N[C@H]4CC[C@@H](O)CC4)c3)ccc2c1 [Compound 74]	101 to 500	10 to 100
Cc1nocc1-c1ccc2c(=O)n(Cc3cccc(C(=O)NCC4CCNCC4)c3)ccc2c1 [Compound 79]	11 to 100	< 10
Cc1nocc1-c1ccc2c(=O)n(Cc3cccc(C(=O)NCC4CCN(C5CC5)CC4)c3)ccc2c1 [Compound 80]	101 to 500	10 to 100
Cc1nocc1-c1ccc2c(=O)n(Cc3cccc(C(=O)NCC4CCN(C(C)C)CC4)c3)ccc2c1 [Compound 81]	101 to 500	10 to 100
Cc1nocc1-c1ccc2c(=O)n(Cc3cccc(C(=O)NCC4CCN(CC(F)(F)F)CC4)c3)ccc2c1 [Compound 83]	101 to 500	10 to 100
Cc1nocc1-c1ccc2c(=O)n(Cc3cccc(C(=O)NCC4CCN(C5COC5)CC4)c3)ccc2c1 [Compound 84]	101 to 500	10 to 100
Cc1nocc1-c1ccc2c(=O)n(Cc3cccc(C(=O)NC4CCNCC4)c3)ccc2c1 [Compound 85]	11 to 100	< 10
Cc1nocc1-c1ccc2c(=O)n(Cc3cccc(C(=O)NC4CCN(CC(F)(F)F)CC4)c3)ccc2c1 [Compound 87]	11 to 100	< 10
Cc1nocc1-c1ccc2c(=O)n(Cc3cccc(C(=O)NC4CCN(C5COC5)CC4)c3)ccc2c1 [Compound 88]	101 to 500	10 to 100
Cc1nocc1-c1ccc2c(=O)n(Cc3cccc(C(=O)Nc4ccn(C)n4)c3)ccc2c1 [Compound 89]	> 501	100 to 500
Cc1nocc1-c1ccc2c(=O)n(Cc3cccc(C(=O)Nc4ccon4)c3)ccc2c1 [Compound 90]	> 501	100 to 500
Cc1nocc1-c1ccc2c(=O)n(Cc3cccc(C(=O)Nc4ccc5c(c4)CCOC5)c3)ccc2c1 [Compound 91]	11 to 100	< 10

Other lines, results leading:

IC50 [1] [nM]	IC50 [2] [nM]	Structure (SMILES)
11 to 100	< 10	Cn1ccc(NC(=O)c2cccc(Cn3ccc4cc(-c5cn[nH]c5C(F)(F)F)ccc4c3=O)c2)n1 [Compound 43]
11 to 100	< 10	O=C(NCc1ccc(F)nc1)c1cccc(Cn2ccc3cc(-c4c[nH]nc4C(F)(F)F)ccc3c2=O)c1 [Compound 44]
< 10	< 10	O=C(NC1CCNCC1)c1cccc(Cn2ccc3cc(-c4c[nH]nc4C(F)(F)F)ccc3c2=O)c1 [Compound 46]
< 10	< 10	CN1CCC(NC(=O)c2cccc(Cn3ccc4cc(-c5c[nH]nc5C(F)(F)F)ccc4c3=O)c2)CC1 [Compound 47]
< 10	< 10	CN1CCC(CNC(=O)c2cccc(Cn3ccc4cc(-c5c[nH]nc5C(F)(F)F)ccc4c3=O)c2)CC1 [Compound 51]
11 to 100	< 10	O=C(NCC1CCOCC1)c1cccc(Cn2ccc3cc(-c4c[nH]nc4C(F)(F)F)ccc3c2=O)c1 [Compound 52]
11 to 100	< 10	O=C(NCC1COC1)c1cccc(Cn2ccc3cc(-c4c[nH]nc4C(F)(F)F)ccc3c2=O)c1 [Compound 53]
11 to 100	< 10	O=C(NCCc1cccc(F)n1)c1cccc(Cn2ccc3cc(-c4c[nH]nc4C(F)(F)F)ccc3c2=O)c1 [Compound 54]
11 to 100	< 10	O=C(NCC1CCOCC1)c1cccc(Cn2ccc3cc(-c4c[nH]nc4C(F)F)ccc3c2=O)c1 [Compound 55]
< 10	< 10	CN1CCC(CNC(=O)c2cccc(Cn3ccc4cc(-c5c[nH]nc5C(F)F)ccc4c3=O)c2)CC1 [Compound 56]
< 10	< 10	O=C(NCC1CCNCC1)c1cccc(Cn2ccc3cc(-c4c[nH]nc4C(F)F)ccc3c2=O)c1 [Compound 57]
11 to 100	< 10	O=C(NCC1COC1)c1cccc(Cn2ccc3cc(-c4c[nH]nc4C(F)F)ccc3c2=O)c1 [Compound 58]
11 to 100	< 10	O=C(NCC1COC1)c1cc(F)cc(Cn2ccc3cc(-c4c[nH]nc4C(F)F)ccc3c2=O)c1 [Compound 59]
11 to 100	< 10	O=C(NCC1CCOCC1)c1cc(F)cc(Cn2ccc3cc(-c4c[nH]nc4C(F)F)ccc3c2=O)c1 [Compound 60]
< 10	< 10	O=C(NCC1CCNCC1)c1cc(F)cc(Cn2ccc3cc(-c4c[nH]nc4C(F)F)ccc3c2=O)c1 [Compound 61]
< 10	< 10	CN1CCC(CNC(=O)c2cc(F)cc(Cn3ccc4cc(-c5c[nH]nc5C(F)F)ccc4c3=O)c2)CC1 [Compound 62]
11 to 100	< 10	O=C(NCC1COC1)c1cccc(Cn2ccc3cc(-c4c[nH]nc4Cl)ccc3c2=O)c1 [Compound 63]
< 10	< 10	CN1CCC(CNC(=O)c2cccc(Cn3ccc4cc(-c5c[nH]nc5Cl)ccc4c3=O)c2)CC1 [Compound 64]
11 to 100	< 10	O=C(N[C@H]1CC[C@@H](O)CC1)c1cc(F)cc(Cn2ccc3cc(-c4c[nH]nc4Cl)ccc3c2=O)c1 [Compound 66]
11 to 100	10 to 100	Cc1nocc1-c1ccc2c(=O)n(Cc3cccc(C(=O)NCC(F)(F)F)c3)ccc2c1 [Compound 67]
11 to 100	10 to 100	Cc1nocc1-c1ccc2c(=O)n(Cc3cccc(C(=O)NCC4CC4)c3)ccc2c1 [Compound 68]
< 10	< 10	Cc1nocc1-c1ccc2c(=O)n(Cc3cccc(C(=O)NCCN4CCN(C)CC4)c3)ccc2c1 [Compound 70]
11 to 100	< 10	Cc1nocc1-c1ccc2c(=O)n(Cc3cccc(C(=O)NCC4COC4)c3)ccc2c1 [Compound 71]
11 to 100	< 10	Cc1nocc1-c1ccc2c(=O)n(Cc3cccc(C(=O)NCc4ccc(F)nc4)c3)ccc2c1 [Compound 76]
11 to 100	< 10	Cc1nocc1-c1ccc2c(=O)n(Cc3cccc(C(=O)NCC4CCN(C)CC4)c3)ccc2c1 [Compound 78]

Reference: patent US12064426B2, “Selective inhibitors of ROCK1 and ROCK2 protein kinases and uses thereof” (GENOSCO Inc., priority 2021, dated 2024)
